Laboratory results as given in US20190322676A1, “CERAMIDE GALACTOSYLTRANSFERASE INHIBITORS FOR THE TREATMENT OF DISEASE” (BioMarin Pharmaceutical Inc., priority 2016, published 2019).

Tests used:
Format in all cases: biochemical
[1] = target: T1, human CGT (ceramide galactosyltransferase), CHO/CGT lysate (Homo sapiens, UniProt Q16880); test: CGT enzyme assay, LC-MS/MS readout (Table 1 ranges without asterisk); settings: LC-MS/MS method (range without asterisk)
T1 construct: Full-length human CGT cDNA was cloned into the BamH1/Xho1 site of pcDNA3.1 (+); expressed in transfected cells; host or cells: Chinese hamster ovary (CHO) cells; lysate prepared with M-PER
T1 sequence (Q16880 21-541): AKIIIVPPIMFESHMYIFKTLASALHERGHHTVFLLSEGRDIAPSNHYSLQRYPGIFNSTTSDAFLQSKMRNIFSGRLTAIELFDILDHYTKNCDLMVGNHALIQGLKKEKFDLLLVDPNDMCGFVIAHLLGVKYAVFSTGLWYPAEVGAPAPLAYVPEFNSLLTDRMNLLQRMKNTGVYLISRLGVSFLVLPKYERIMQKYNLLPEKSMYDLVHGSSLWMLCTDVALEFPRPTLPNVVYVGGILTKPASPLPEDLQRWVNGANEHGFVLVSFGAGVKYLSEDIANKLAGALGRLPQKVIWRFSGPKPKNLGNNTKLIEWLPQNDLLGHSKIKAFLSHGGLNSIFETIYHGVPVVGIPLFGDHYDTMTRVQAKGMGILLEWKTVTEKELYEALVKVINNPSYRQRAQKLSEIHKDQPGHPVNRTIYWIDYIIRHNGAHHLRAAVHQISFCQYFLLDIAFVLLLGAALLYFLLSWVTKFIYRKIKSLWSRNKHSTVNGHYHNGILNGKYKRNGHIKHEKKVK
Method in brief: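 Lysate of CHO cells transfected with full-length human CGT incubated 1 h at 37 °C with compound (0.001–50 μM) in HEPES pH 7.2 with 17.5 μM UDP-galactose and C12:0 (2R-OH) ceramide substrate, 0.5% DMSO, no Tween 80. Galactosylceramide product quantified by LC-MS/MS against C12 ceramide internal standard; IC50 calculated.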

[2] = target: T1, human CGT (ceramide galactosyltransferase), CHO/CGT lysate; test: CGT enzyme assay, RapidFire/MS/MS readout (Table 1 ranges with one asterisk *); settings: RapidFire method (range with one asterisk *)
Method in brief: (§1)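 Lysate (4 μg) of CHO cells transfected with full-length human CGT incubated 1 h at 37 °C with compound (0.001–50 μM) in pH 7.2 HEPES buffer with 10 μM C6-NBD-dihydro-ceramide, 17.5 μM UDP-galactose, Mg2+/Mn2+, CHAPS, BSA, 0.5% DMSO; ** set also contained 0.01% Tween 80. Product quantified by RapidFire/MS/MS, normalized to internal standard; IC50 from sigmoidal variable-slope fits.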

[3] = target: T1, human CGT (ceramide galactosyltransferase), CHO/CGT lysate; test: CGT enzyme assay, RapidFire/MS/MS readout with 0.01% Tween added (Table 1 ranges with two asterisks **); settings: CGT enzyme assay, RapidFire/MS/MS method with 0.01% Tween added (range with two asterisks **)
Method in brief: as §1

Measured: IC50

NC1CC2CCC(C1)N2C(=O)[C@@H](NS(=O)(=O)c1ccc2cc(OC3CCCC3)ccc2c1)C(F)(F)c1ccc(Br)cc1 (stereo partly drawn) [Compound 5-1, N-((2R)-3-(3-amino-8-azabicyclo[3.2.1]octan-8-yl)-1-(4-bromophenyl)-1,1-difluoro-3-oxopropan-2-yl)-6-(cyclopentyloxy)naphthalene-2-sulfonamide]
< 1000 nM: all assays above
